# What was measured:
# Experiment in all cases: relative viability (nuclei count vs DMSO), 5 days (fraction); higher = more cells survive
# BEN = test system: BEN
# How it was run: (§1)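 The day after seeding in 1536-well plates, lung cancer cell lines were treated by pin tool with a single drug, or with a fixed anchor-drug dose together with five library-drug doses (not always all listed) in √10 steps. After 5 days, a combined fix-and-stain solution (final 0.05% Triton X-100, 1% formaldehyde, 1 ug/ml Hoechst) was added. Nuclei counted on 4× images gave relative viability as treated counts over vehicle counts, reported as the median of duplicate plates.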
# EKVX = test system: EKVX
# How it was run: as §1
# HARA = test system: HARA
# How it was run: as §1
# HCC-366 = test system: HCC-366
# How it was run: as §1
# HCC-827 = test system: HCC-827
# How it was run: as §1
# LOU-NH91 = test system: LOU-NH91
# How it was run: as §1
# NCI-H1355 = test system: NCI-H1355
# How it was run: as §1
# NCI-H1395 = test system: NCI-H1395
# How it was run: as §1
# NCI-H1437 = test system: NCI-H1437
# How it was run: as §1
# NCI-H1734 = test system: NCI-H1734
# How it was run: as §1
# NCI-H1792 = test system: NCI-H1792
# How it was run: as §1
# NCI-H1993 = test system: NCI-H1993
# How it was run: as §1
# NCI-H2009 = test system: NCI-H2009
# How it was run: as §1
# NCI-H2087 = test system: NCI-H2087
# How it was run: as §1
# NCI-H2170 = test system: NCI-H2170
# How it was run: as §1
# NCI-H2405 = test system: NCI-H2405
# How it was run: as §1
# NCI-H647 = test system: NCI-H647
# How it was run: as §1
# SK-LU-1 = test system: SK-LU-1
# How it was run: as §1
# SK-MES-1 = test system: SK-MES-1
# How it was run: as §1
compound,measurement,setting,value
O=c1cc(N2CCOCC2)oc2c(-c3cccc4c3sc3ccccc34)cccc12 + CC1(C)CCC(c2ccc(Cl)cc2)=C(CN2CCN(c3ccc(C(=O)NS(=O)(=O)c4ccc(N[C@H](CCN5CCOCC5)CSc5ccccc5)c(S(=O)(=O)C(F)(F)F)c4)cc3)CC2)C1 [Navitoclax] (partner 0.5 µM),relative viability,BEN; first compound 0.01 µM,0.155
same,relative viability,BEN; first compound 0.03162 µM,0.0681
same,relative viability,BEN; first compound 0.1 µM,0.0673
same,relative viability,BEN; first compound 0.3162 µM,0.0807
same,relative viability,BEN; first compound 1 µM,0.0563
same,relative viability,EKVX; first compound 0.01 µM,1.02
same,relative viability,EKVX; first compound 0.03162 µM,0.903
same,relative viability,EKVX; first compound 0.1 µM,0.991
same,relative viability,EKVX; first compound 0.3162 µM,0.956
same,relative viability,EKVX; first compound 1 µM,0.871
same,relative viability,HARA; first compound 0.01 µM,1.11
same,relative viability,HARA; first compound 0.03162 µM,1.13
same,relative viability,HARA; first compound 0.1 µM,1.15
same,relative viability,HARA; first compound 0.3162 µM,1.17
same,relative viability,HARA; first compound 1 µM,1.14
same,relative viability,HCC-366; first compound 0.01 µM,1.11
same,relative viability,HCC-366; first compound 0.03162 µM,1.1
same,relative viability,HCC-366; first compound 0.1 µM,1.08
same,relative viability,HCC-366; first compound 0.3162 µM,1
same,relative viability,HCC-366; first compound 1 µM,1.04
same,relative viability,HCC-827; first compound 0.01 µM,1.02
same,relative viability,HCC-827; first compound 0.03162 µM,0.996
same,relative viability,HCC-827; first compound 0.1 µM,1.01
same,relative viability,HCC-827; first compound 0.3162 µM,1.07
same,relative viability,HCC-827; first compound 1 µM,1.02
same,relative viability,LOU-NH91; first compound 0.01 µM,0.637
same,relative viability,LOU-NH91; first compound 0.03162 µM,0.631
same,relative viability,LOU-NH91; first compound 0.1 µM,0.695
same,relative viability,LOU-NH91; first compound 0.3162 µM,0.747
same,relative viability,LOU-NH91; first compound 1 µM,0.689
same,relative viability,NCI-H1355; first compound 0.01 µM,0.956
same,relative viability,NCI-H1355; first compound 0.03162 µM,0.981
same,relative viability,NCI-H1355; first compound 0.3162 µM,0.941
same,relative viability,NCI-H1355; first compound 1 µM,0.891
same,relative viability,NCI-H1395; first compound 0.01 µM,1.08
same,relative viability,NCI-H1395; first compound 0.03162 µM,1.16
same,relative viability,NCI-H1395; first compound 0.1 µM,1.38
same,relative viability,NCI-H1395; first compound 0.3162 µM,1.17
same,relative viability,NCI-H1395; first compound 1 µM,1.23
same,relative viability,NCI-H1437; first compound 0.01 µM,1.05
same,relative viability,NCI-H1437; first compound 0.03162 µM,1.13
same,relative viability,NCI-H1437; first compound 0.1 µM,1.16
same,relative viability,NCI-H1437; first compound 0.3162 µM,1.05
same,relative viability,NCI-H1437; first compound 1 µM,1.05
same,relative viability,NCI-H1734; first compound 0.01 µM,0.921
same,relative viability,NCI-H1734; first compound 0.03162 µM,0.807
same,relative viability,NCI-H1734; first compound 0.1 µM,0.835
same,relative viability,NCI-H1734; first compound 0.3162 µM,0.708
same,relative viability,NCI-H1734; first compound 1 µM,0.851
same,relative viability,NCI-H1792; first compound 0.01 µM,0.604
same,relative viability,NCI-H1792; first compound 0.03162 µM,0.595
same,relative viability,NCI-H1792; first compound 0.1 µM,0.368
same,relative viability,NCI-H1792; first compound 0.3162 µM,0.564
same,relative viability,NCI-H1792; first compound 1 µM,0.556
same,relative viability,NCI-H1993; first compound 0.01 µM,1.02
same,relative viability,NCI-H1993; first compound 0.03162 µM,0.953
same,relative viability,NCI-H1993; first compound 0.1 µM,0.976
same,relative viability,NCI-H1993; first compound 0.3162 µM,0.921
same,relative viability,NCI-H1993; first compound 1 µM,0.887
same,relative viability,NCI-H2009; first compound 0.01 µM,1.14
same,relative viability,NCI-H2009; first compound 0.03162 µM,1.16
same,relative viability,NCI-H2009; first compound 0.1 µM,1.14
same,relative viability,NCI-H2009; first compound 0.3162 µM,1.19
same,relative viability,NCI-H2009; first compound 1 µM,1.05
same,relative viability,NCI-H2087; first compound 0.01 µM,0.929
same,relative viability,NCI-H2087; first compound 0.03162 µM,0.904
same,relative viability,NCI-H2087; first compound 0.1 µM,1.01
same,relative viability,NCI-H2087; first compound 0.3162 µM,0.919
same,relative viability,NCI-H2087; first compound 1 µM,0.857
same,relative viability,NCI-H2170; first compound 0.01 µM,0.69
same,relative viability,NCI-H2170; first compound 0.03162 µM,0.741
same,relative viability,NCI-H2170; first compound 0.1 µM,0.599
same,relative viability,NCI-H2170; first compound 0.3162 µM,0.62
same,relative viability,NCI-H2170; first compound 1 µM,0.605
same,relative viability,NCI-H2405; first compound 0.01 µM,0.837
same,relative viability,NCI-H2405; first compound 0.03162 µM,1.01
same,relative viability,NCI-H2405; first compound 0.1 µM,0.838
same,relative viability,NCI-H2405; first compound 0.3162 µM,0.811
same,relative viability,NCI-H2405; first compound 1 µM,0.95
same,relative viability,NCI-H647; first compound 0.01 µM,0.985
same,relative viability,NCI-H647; first compound 0.3162 µM,1.06
same,relative viability,NCI-H647; first compound 1 µM,1.1
same,relative viability,SK-LU-1; first compound 0.03162 µM,0.954
same,relative viability,SK-LU-1; first compound 0.1 µM,1.1
same,relative viability,SK-LU-1; first compound 0.3162 µM,1.18
same,relative viability,SK-LU-1; first compound 1 µM,0.77
same,relative viability,SK-MES-1; first compound 0.01 µM,1.28
same,relative viability,SK-MES-1; first compound 0.03162 µM,1.26
same,relative viability,SK-MES-1; first compound 0.1 µM,1.43
same,relative viability,SK-MES-1; first compound 0.3162 µM,1.26
same,relative viability,SK-MES-1; first compound 1 µM,1.13
